For this experiment, the system named is hepatocellular carcinoma cell line Hub-7. In words: Cell proliferation assay, Hub-7 (CELL-TITER GLO). The class given is cell-based. Particulars: Hub-7 cells, 24 h incubation, cell viability by CELL-TITER GLO, top concentration 10 μM; read-out: EC50, Inhibition of Hub-7 Cell Proliferation. The protocol: The activity of a compound was determined in a cell proliferation assay using the hepatocellular carcinoma cell line Hub-7. Cells (4,000 cells per well) were seeded in a 96-well tissue culture plate. After incubated overnight, the compound was added at predetermined concentrations, starting with 10 μM and followed by 3-fold serial dilution. After the cells were incubated for 24 h, cell viability was determined using a CELL-TITER GLO® assay. The CELL-TITER GLO® reagent (50 μL) was added to each well and the luminescence was measured by a multimode microplate reader after a brief period of shaking. EC50 values were determined for the compound. The results are summarized in Table 1, wherein A represents a value no greater than 200 nM, B represents a value greater than 200 nM but no greater than 1 μM, C represents a value greater than 1 μM but no greater than 5 μM, and D represents a value greater than 5 μM.

This note sets out measurements from US20240101546A1, “HETEROARYL-ACETYLENES, PHARMACEUTICAL COMPOSITIONS THEREOF, AND THEIR THERAPEUTIC APPLICATIONS” (Eubulus Biotherapeutics Inc., priority 2020, published 2024).

pEC50: −log10 of the molar value. Some results are limits rather than exact numbers.

On to `C#Cc1nc(C(=O)NCc2ccc(-c3cccc4[nH]ncc34)cc2)cs1` [Compound C40, N-(4-(1H-Indazol-4-yl)benzyl)-2-ethynylthiazole-4-carboxamide], for which the pEC50 is 5.30 to 6.00.

`C#Cc1nc(C(=O)NCCc2ccc(-c3ccn(C)n3)cc2)cs1` [Compound C41, 2-Ethynyl-N-(4-(1-methyl-1H-pyrazol-3-yl)phenethyl)thiazole-4-carboxamide]: the pEC50 is 5.30 to 6.00.

For `C#Cc1nc(C(=O)NCCc2ccc(-c3ccc4ncsc4c3)cc2)cs1` [Compound C42, N-(4-(Benzo[d]thiazol-6-yl)phenethyl)-2-ethynylthiazole-4-carboxamide], the pEC50 is 6.00 to 6.70.

`C#Cc1nc(C(=O)NCCc2ccc(-c3cccc4c3CC(=O)N4C)cc2)cs1` [Compound C43, 2-Ethynyl-N-(4-(1-methyl-2-oxoindolin-4-yl)phenethyl)thiazole-4-carboxamide]: the pEC50 was 6.00 to 6.70.

Regarding `C#Cc1nc(C(=O)NCc2ccc3ccccc3n2)cs1` [Compound C44, 2-ethynyl-N-(quinolin-2-ylmethyl)thiazole-4-carboxamide], the pEC50 is not below 6.70.

Consider `C#Cc1nc(C(=O)NCCc2ccccc2C#N)cs1` [Compound C45, N-(2-Cyanophenethyl)-2-ethynylthiazole-4-carboxamide], for which the pEC50 is 5.30 to 6.00.

Consider `C#Cc1nc(C(=O)NCc2cccc(CC(=O)OC)c2)cs1` [Compound C46, Methyl 2-(3-((2-ethynylthiazole-4-carboxamido)methyl)phenyl)acetate], for which the pEC50 was 6.00 to 6.70.

On to `C#Cc1nc(C(=O)NCc2cccc(CC(N)=O)c2)cs1` [Compound C47, N-(3-(2-Amino-2-oxoethyl)benzyl)-2-ethynylthiazole-4-carboxamide], for which the pEC50 is 5.30 to 6.00.

For `C#Cc1nc(C(=O)NCCc2ccc(-c3cccc4c3CC(=O)N4)cc2)cs1` [Compound C48, 2-Ethynyl-N-(4-(2-oxoindolin-4-yl)phenethyl)thiazole-4-carboxamide], the pEC50 was 6.00 to 6.70.

With `C#Cc1nc(C(=O)NCCc2ccc(-c3cccc4[nH]ncc34)cc2)cs1` [Compound C49, N-(4-(1H-Indazol-4-yl)phenethyl)-2-ethynylthiazole-4-carboxamide], the pEC50 was not below 6.70.

For `C#Cc1nc(C(=O)NCCc2ccc(-c3cccc4c3ccn4C)cc2)cs1` [Compound C50, 2-Ethynyl-N-(4-(1-methyl-1H-indol-4-yl)phenethyl)thiazole-4-carboxamide], the pEC50 is not below 6.70.

For `C#Cc1nc(C(=O)NCCc2ccc(-c3cccc4[nH]ccc34)cc2)cs1` [Compound C51, N-(4-(1H-Indol-4-yl)phenethyl)-2-ethynylthiazole-4-carboxamide], the pEC50 was 6.00 to 6.70.

With `C#Cc1nc(C(=O)NCc2cccc(Cl)c2)c(C)s1` [Compound C52, N-(3-Chlorobenzyl)-2-ethynyl-5-methylthiazole-4-carboxamide], the pEC50 is 6.00 to 6.70.

Take `C#Cc1nc(C(=O)NCCc2ccc(-c3cscn3)cc2)cs1` [Compound C53, 2-Ethynyl-N-(4-(thiazol-4-yl)phenethyl)thiazole-4-carboxamide]: the pEC50 was 6.00 to 6.70.

`C#Cc1nc(C(=O)NCc2ccc(-c3ccn(C)n3)cc2)cs1` [Compound C54, 2-Ethynyl-N-(4-(1-methyl-1H-pyrazol-3-yl)benzyl)thiazole-4-carboxamide]: the pEC50 was 6.00 to 6.70.

Regarding `C#Cc1nc(C(=O)NCc2ccc(-c3cscn3)cc2)cs1` [Compound C55, 2-Ethynyl-N-(4-(thiazol-4-yl)benzyl)thiazole-4-carboxamide], the pEC50 is 6.00 to 6.70.

As for `C#Cc1nc(C(=O)NCc2cccc(Cl)c2)c(-c2ccccc2)s1` [Compound C56, N-(3-Chlorobenzyl)-2-ethynyl-5-phenylthiazole-4-carboxamide], the pEC50 is 5.30 to 6.00.

For `C#Cc1nc(C(=O)NCCc2ccc(-c3cncs3)cc2)cs1` [Compound C57, 2-Ethynyl-N-(4-(thiazol-5-yl)phenethyl)thiazole-4-carboxamide], the pEC50 was 6.00 to 6.70.

Consider `C#Cc1nc(C(=O)NCc2cccc(-c3cn[nH]c3)c2)cs1` [Compound C58, N-(3-(1H-Pyrazol-4-yl)benzyl)-2-ethynylthiazole-4-carboxamide], for which the pEC50 is 5.30 to 6.00.

As to `C#Cc1nc(C(=O)NCc2cccc(-c3cnn(C)c3)c2)cs1` [Compound C59, 2-Ethynyl-N-(3-(1-methyl-1H-pyrazol-4-yl)benzyl)thiazole-4-carboxamide], the pEC50 is 5.30 to 6.00.

In the case of `C#Cc1nc(C(=O)NCc2cccc(-c3cc[nH]n3)c2)cs1` [Compound C60, N-(3-(1H-Pyrazol-3-yl)benzyl)-2-ethynylthiazole-4-carboxamide], the pEC50 was 6.00 to 6.70.

As to `C#Cc1nc(C(=O)NCc2ccc(-c3cncs3)cc2)cs1` [Compound C61, 2-Ethynyl-N-(4-(thiazol-5-yl)benzyl)thiazole-4-carboxamide], the pEC50 was 6.00 to 6.70.

Regarding `C#Cc1nc(C(=O)NC2Cc3ccccc3C2)cs1` [Compound C62, N-(2,3-Dihydro-1H-inden-2-yl)-2-ethynylthiazole-4-carboxamide], the pEC50 was 6.00 to 6.70.

In the case of `C#Cc1nc(C(=O)NCc2ccccc2C#N)cs1` [Compound C63, N-(2-Cyanobenzyl)-2-ethynylthiazole-4-carboxamide], the pEC50 is not below 6.70.

For `C#Cc1nc(C(=O)NCc2ccc3ccccc3c2)cs1` [Compound C64, 2-Ethynyl-N-(naphthalen-2-ylmethyl)thiazole-4-carboxamide], the pEC50 is not below 6.70.

Take `C#Cc1nc(C(=O)NCc2cccc(-c3cccnc3)c2)cs1` [Compound C65, 2-Ethynyl-N-(3-(pyridin-3-yl)benzyl)thiazole-4-carboxamide]: the pEC50 was 5.30 to 6.00.

`C#Cc1nc(C(=O)NCc2ccc3ncsc3c2)cs1` [Compound C66, N-(Benzo[d]thiazol-6-ylmethyl)-2-ethynylthiazole-4-carboxamide]: the pEC50 was 5.30 to 6.00.

As for `C#Cc1nc(C(=O)N[C@H](C)c2cccc(Cl)c2)cs1` [Compound C67, (R)—N-(1-(3-Chlorophenyl)ethyl)-2-ethynylthiazole-4-carboxamide], the pEC50 is 5.30 to 6.00.

Regarding `C#Cc1nc(C(=O)NC2(c3cccc(Cl)c3)CC2)cs1` [Compound C68, N-(1-(3-Chlorophenyl)cyclopropyl)-2-ethynylthiazole-4-carboxamide], the pEC50 was 6.00 to 6.70.

For the compound `C#Cc1nc(C(=O)N[C@@H](C)c2cccc(Cl)c2)cs1` [Compound C69, (S)—N-(1-(3-Chlorophenyl)ethyl)-2-ethynylthiazole-4-carboxamide], the pEC50 was not below 6.70.

In the case of `C#Cc1nc(C(=O)NCc2ccccc2CO)cs1` [Compound C70, 2-Ethynyl-N-(2-(hydroxymethyl)benzyl)thiazole-4-carboxamide], the pEC50 is 5.30 to 6.00.

As to `C#Cc1nc(C(=O)N[C@H]2CCc3ccccc32)cs1` [Compound C71, (S)—N-(2,3-Dihydro-1H-inden-1-yl)-2-ethynylthiazole-4-carboxamide], the pEC50 was 6.00 to 6.70.

With `C#Cc1nc(C(=O)N[C@@H]2CCc3ccccc32)cs1` [Compound C72, (R)—N-(2,3-Dihydro-1H-inden-1-yl)-2-ethynylthiazole-4-carboxamide], the pEC50 is 6.00 to 6.70.

Take `C#Cc1nc(C(=O)NCc2ccc(CCC(=O)OC)cc2)cs1` [Compound C73, Methyl 3-(4-((2-ethynylthiazole-4-carboxamido)methyl)phenyl)propanoate]: the pEC50 is less than 5.30.
